Assay results published in patent publication US20250332109A1 (Veradermics, Incorporated, priority 2024, published 2025).
Like-named read-outs stand apart in the source and are kept apart here.

Columns and labels:
mice = details: dietary, up to 2 years, 10, 25, and 63 mg/kg/day; cited from earlier work
rabbits = details: oral, 5 times the maximum recommended oral antihypertensive human dose; cited from earlier work
[1] = primarily by conjugation with glucuronic acid; cited from earlier work
[2] = cited from earlier work
male adults with AGA = details: 5 mg oral at bedtime; 24 week follow up; cited from earlier work
hypertensive patients = details: intravenous infusion; cited from earlier work
patients = details: chronic therapy; initially, then recovers; cited from earlier work
subjects = details: topical foam 5% versus vehicle topical foam; 404 subjects enrolled; cited from earlier work
[3] = test system: person with androgenetic alopecia; details: 1.25 mg QID
[4] = test system: person with androgenetic alopecia; test: Case study: person with androgenetic alopecia and hypertension treated with oral minoxidil; details: 0.625 mg four times a day

Nc1cc(N2CCCCC2)nc(N)[n+]1[O-] [minoxidil]
incidence of malignant lymphomas in females (mice): increased incidence of malignant lymphomas
fetal resorption (rabbits): increased fetal resorption
fraction of oral dose metabolized [1]: About 90%
dose dependence of PK ([2]; 2.5 mg, 5 mg, 10 mg oral, PK and urinary excretion data): dose-independent PK
duration plasma concentrations above 20 ng/mL ([2]; 5 mg dose level): around 1 h
duration plasma concentrations above 20 ng/mL ([2]; 10 mg dose level): around 2 h
observed half-life ([2]; immediate release formulation, healthy subjects): around 1 h
effect on blood pressure ([2]; normotensive subjects, 2.5 mg, 5 mg, or 10 mg oral): little effect on blood pressure
subjects reporting edema (male adults with AGA): 2.9%
subjects reporting vertigo (male adults with AGA): 2.9%
steady state plasma concentration associated with significant (>5 beats per minute) changes in heart rate (hypertensive patients): above 20 ng/mL
temporary decrease in hematocrit, hemoglobin, and erythrocyte count (hemodilution) (patients): approximately 7%
SAEs reported in treated subjects (subjects): Six
unwanted hair growth or other adverse events, including cardiac effects [3]: No unwanted hair growth or other adverse events
reductions in blood pressure [4]: did not experience significant reductions in blood pressure
unwanted hair growth or other adverse events [4]: No unwanted hair growth or other adverse events
